From US8859541B2, “6-alkynylpyridines” (Boehringer Ingelheim International GmbH, priority 2012, dated 2014)

Molecular target: T1, XIAP BIR3 (Homo sapiens, UniProt P98170)
T1 construct: covering amino acids 241 to 356; XIAP BIR3; made in house; host or cells: E. coli
Assay: XIAP BIR3 binding assay (DELFIA), displacement of SMAC peptide
Settings: GST-fusion BIR3 domain (aa 241 to 356) 10 nM, SMAC peptide 10 nM; activity of the (S)-isomers
Method: Biological Methods XIAP BIR3 and cIAP1 BIR3 Binding Assays (DELFIA)
Peptide […]-Lys(Biotin), representing the N-terminus of mature human SMAC (SMAC peptide), was used as interaction partner in the protein-peptide interaction assay.
BIR3 domains (10 nM) were incubated with SMAC peptide (10 nM) in Assay Buffer (50 mM Tris, 120 mM NaCl, 0.1% BSA, 1 mM DTT, 0.05% TritonX100) for one hour at room temperature in the presence of inhibitiory compounds. The assay mixture was transferred to a strepatvidin coated plate and incubated for one hour at room temperature to allow binding of the biotinylated peptide and associated BIR3 domains to the plate. After several washing steps Eu labeled anti-GST antibody (e.g. Perkin Elmer DELFIA Eu-N1-antiGST AD0250) was added to detect BIR3 domain-SMAC peptide interactions according to Perkin Elmer's instructions. […] Time resolved Europium fluoresecence was measured in a Wallac Victor using Standard assay settings.
DELFIA assay results were plotted against compound concentrations and Software GraphPad Prizm was used to calculate half maximal inhibitory concentrations (IC50 values).

T1 sequence (P98170 241-356): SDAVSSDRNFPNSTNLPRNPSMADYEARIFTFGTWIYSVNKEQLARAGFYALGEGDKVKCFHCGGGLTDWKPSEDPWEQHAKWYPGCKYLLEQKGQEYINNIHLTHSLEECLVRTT

Compound | IC50 [nM]
CNC(C)C(=O)Nc1ccc(-c2ccccc2Cl)c(C#Cc2ccccc2)n1 (centres unmarked) [Example 116, N-[5-(2-chlorophenyl)-6-(2-phenylethynyl)pyridin-2-yl]-2-(methylamino)propanamide] | 1770
CNC(C)C(=O)Nc1ccc(-c2cc(C#N)ccc2Cl)c(C#Cc2ccccc2)n1 (centres unmarked) [Example 117, N-[5-(2-chloro-5-cyanophenyl)-6-(2-phenylethynyl)pyridin-2-yl]-2-(methylamino)propanamide] | 406
CNC(C)C(=O)Nc1ccc(Cc2ccccc2)c(C#Cc2ccccc2)n1 (centres unmarked) [Example 119, N-[5-benzyl-6-(2-phenylethynyl)pyridin-2-yl]-2-(methylamino)-propan-amide] | 327
CNC(C)C(=O)Nc1ccc(-c2cncc(C(=O)O)c2)c(C#Cc2ccccc2)n1 (centres unmarked) [Example 120, 5-[6-[[2-(methylamino)-propanoyl]amino]-2-(2-phenyl-ethynyl)pyridin-3-yl]pyridine-3-carboxylic acid] | 185
CCc1ccccc1-c1ccc(NC(=O)C(C)NC)nc1C#Cc1ccccc1 (centres unmarked) [Example 124, N-[5-(2-ethylphenyl)-6-(2-phenyl-ethynyl)pyridin-2-yl]-2-(methyl-amino)propanamide] | 2840
CNC(C)C(=O)Nc1ccc(-c2cncc(N)c2)c(C#Cc2ccccc2)n1 (centres unmarked) [Example 128, N-[5-(5-aminopyridin-3-yl)-6-(2-phenylethynyl)pyridin-2-yl]-2-(methylamino)propanamide] | 101
CNC(C)C(=O)Nc1ccc(-c2cc(C(=O)OC)ccc2OC)c(C#Cc2ccccc2)n1 (centres unmarked) [Example 131, methyl 4-methoxy-3-[6-[[2-(methylamino)propanoyl]amino]-2-(2-phenylethynyl)pyridin-3-yl]-benzoate] | 305
CNC(C)C(=O)Nc1ccc(-c2cc(C(=O)OC)cc([N+](=O)[O-])c2)c(C#Cc2ccccc2)n1 (centres unmarked) [Example 133, methyl 3-[6-[[2-(methylamino)-propanoyl]amino]-2-(2-phenyl-ethynyl)pyridin-3-yl]-5-nitrobenzoate] | 142
CNC(C)C(=O)Nc1ccc(-c2ccc(C)c(C(=O)OC)c2)c(C#Cc2ccccc2)n1 (centres unmarked) [Example 134, methyl 2-methyl-5-[6-[[2-(methylamino)propanoyl]amino]-2-(2-phenylethynyl)pyridin-3-yl]-benzoate] | 581
CC(N)C(=O)Nc1ccc(-c2cccc3cccnc23)c(C#Cc2ccccc2)n1 (centres unmarked) [Example 135, 2-amino-N-[6-(2-phenylethynyl)-5-quinolin-8-ylpyridin-2-yl]-propanamide] | 490
CNC(C)C(=O)Nc1ccc(-c2sc(-c3ccccc3)nc2C)c(C#Cc2ccccc2)n1 (centres unmarked) [Example 136, 2-(methylamino)-N-[5-(4-methyl-2-phenyl-1,3-thiazol-5-yl)-6-(2-phenylethynyl)pyridin-2-yl]-propanamide] | 1040
CNC(C)C(=O)Nc1ccc(-c2cccc3[nH]ncc23)c(C#Cc2ccccc2)n1 (centres unmarked) [Example 137, N-[5-(1H-indazol-4-yl)-6-(2-phenylethynyl)pyridin-2-yl]-2-(methylamino)propanamide] | 155
CNC(C)C(=O)Nc1ccc(-c2cccc(F)c2F)c(C#Cc2ccccc2)n1 (centres unmarked) [Example 139, N-[5-(2,3-difluorophenyl)-6-(2-phenylethynyl)pyridin-2-yl]-2-(methylamino)propanamide] | 1410
CNC(C)C(=O)Nc1ccc(-c2cccc(C(F)(F)F)c2OC)c(C#Cc2ccccc2)n1 (centres unmarked) [Example 140, N-[5-[2-methoxy-3-(trifluoromethyl)phenyl]-6-(2-phenylethynyl)pyridin-2-yl]-2-(methylamino)propanamide] | 1990
CNC(C)C(=O)Nc1ccc(-c2cccc(C(=O)O)c2OC)c(C#Cc2ccccc2)n1 (centres unmarked) [Example 141] | 558
CNC(C)C(=O)Nc1ccc(-c2cccc3c2ccn3C)c(C#Cc2ccccc2)n1 (centres unmarked) [Example 142, 2-(methylamino)-N-[5-(1-methylindol-4-yl)-6-(2-phenyl-ethynyl)pyridin-2-yl]propanamide] | 503
CNC(C)C(=O)Nc1ccc(-c2cccc3ncccc23)c(C#Cc2ccc(C)cc2)n1 (centres unmarked) [Example 143, 2-(methylamino)-N-[6-[2-(4-methylphenyl)ethynyl]-5-quinolin-5-ylpyridin-2-yl]propan-amide] | 388
CNC(C)C(=O)Nc1ccc(-c2cccc3cnccc23)c(C#Cc2ccc(C)cc2)n1 (centres unmarked) [Example 144, N-[5-isoquinolin-5-yl-6-[2-(4-methylphenyl)ethynyl]pyridin-2-yl]-2-(methylamino)propanamide] | 400
CNC(C)C(=O)Nc1ccc(-c2ccc(F)nc2)c(C#Cc2ccccc2)n1 (centres unmarked) [Example 146, N-[5-(6-fluoropyridin-3-yl)-6-(2-phenylethynyl)pyridin-2-yl]-2-(methylamino)propanamide] | 257
CNC(C)C(=O)Nc1ccc(-c2cnccc2C#N)c(C#Cc2ccc(C)cc2)n1 (centres unmarked) [Example 148, N-[5-(4-cyanopyridin-3-yl)-6-[2-(4-methylphenyl)ethynyl]pyridin-2-yl]-2-(methylamino)propan-amide] | 416
CNC(C)C(=O)Nc1ccc(-c2cccc(-c3ccccc3)c2)c(C#Cc2ccccc2)n1 (centres unmarked) [Example 150, 2-(methylamino)-N-[6-(2-phenyl-ethynyl)-5-(3-phenylphenyl)-pyridin-2-yl]propanamide] | 2450

The next lines start with the values.

IC50 [nM] | Compound
326 | CNC(C)C(=O)Nc1ccc(-c2ccc(C(=O)OC)nc2)c(C#Cc2cc(F)cc(F)c2)n1 (centres unmarked) [Example 151, methyl 5-[2-[2-(3,5-difluorophenyl)ethynyl]-6-[[2-(methylamino)propanoyl]amino]-pyridin-3-yl]pyridine-2-carboxylate]
431 | CNC(C)C(=O)Nc1ccc(-c2ccnc3ccccc23)c(C#Cc2cc(F)cc(F)c2)n1 (centres unmarked) [Example 152, N-[6-[2-(3,5-difluorophenyl)-ethynyl]-5-quinolin-4-ylpyridin-2-yl]-2-(methylamino)propanamide]
1240 | CNC(C)C(=O)Nc1ccc(-c2cnccc2OC)c(C#Cc2ccc3cnccc3c2)n1 (centres unmarked) [Example 153, N-[6-(2-isoquinolin-6-ylethynyl)-5-(4-methoxypyridin-3-yl)-pyridin-2-yl]-2-(methylamino)-propanamide]
569 | CNC(C)C(=O)Nc1ccc(-c2cnccc2OC)c(C#Cc2ccc3ccccc3c2)n1 (centres unmarked) [Example 154, N-[5-(4-methoxypyridin-3-yl)-6-(2-naphthalen-2-ylethynyl)-pyridin-2-yl]-2-(methylamino)-propanamide]
284 | CNC(C)C(=O)Nc1ccc(-c2cnc(N3CCCC3)nc2)c(C#Cc2ccc3ccccc3c2)n1 (centres unmarked) [Example 155, 2-(methylamino)-N-[6-(2-naphthalen-2-ylethynyl)-5-(2-pyrrolidin-1-ylpyrimidin-5-yl)-pyridin-2-yl]propanamide]
3180 | CNC(C)C(=O)Nc1ccc(-c2c(-c3ccccc3)noc2C)c(C#Cc2ccc3ccccc3c2)n1 (centres unmarked) [Example 156, 2-(methylamino)-N-[5-(5-methyl-3-phenyl-1,2-oxazol-4-yl)-6-(2-naphthalen-2-ylethynyl)pyridin-2-yl]propanamide]
276 | CNc1ncc(-c2ccc(NC(=O)C(C)NC)nc2C#Cc2ccc3ccccc3c2)cn1 (centres unmarked) [Example 157, 2-(methylamino)-N-[5-[2-(methylamino)pyrimidin-5-yl]-6-(2-naphthalen-2-ylethynyl)-pyridin-2-yl]propanamide]
772 | CNC(C)C(=O)Nc1ccc(-c2cnc(SC)nc2)c(C#Cc2ccc3ccccc3c2)n1 (centres unmarked) [Example 158, 2-(methylamino)-N-[5-(2-methylsulfanylpyrimidin-5-yl)-6-(2-naphthalen-2-ylethynyl)-pyridin-2-yl]propanamide]
767 | CNC(C)C(=O)Nc1ccc(-c2cncnc2C(C)C)c(C#Cc2ccc3ccccc3c2)n1 (centres unmarked) [Example 159, 2-(methylamino)-N-[6-(2-naphthalen-2-ylethynyl)-5-(4-propan-2-ylpyrimidin-5-yl)-pyridin-2-yl]propanamide]
474 | CNC(C)C(=O)Nc1ccc(-c2cnccc2C#N)c(C#Cc2cc(F)cc(F)c2)n1 (centres unmarked) [Example 160, N-[5-(4-cyanopyridin-3-yl)-6-[2-(3,5-difluorophenyl)ethynyl]-pyridin-2-yl]-2-(methylamino)-propanamide]
1820 | CNC(C)C(=O)Nc1ccc(-c2c(F)ccc3ccc(C)nc23)c(C#Cc2ccccc2)n1 (centres unmarked) [Example 162, N-[5-(7-fluoro-2-methylquinolin-8-yl)-6-(2-phenylethynyl)pyridin-2-yl]-2-(methylamino)propan-amide]
4450 | CNC(C)C(=O)Nc1ccc(-c2c(OC)ccc3ccccc23)c(C#Cc2ccccc2)n1 (centres unmarked) [Example 163, N-[5-(2-methoxynaphthalen-1-yl)-6-(2-phenylethynyl)pyridin-2-yl]-2-(methylamino)propanamide]
335 | CNC(C)C(=O)Nc1ccc(-c2c(C)nn(C)c2C)c(C#Cc2ccc3cnccc3c2)n1 (centres unmarked) [Example 164, N-[6-(2-isoquinolin-6-ylethynyl)-5-(1,3,5-trimethylpyrazol-4-yl)-pyridin-2-yl]-2-(methylamino)-propanamide]
898 | CC(N)C(=O)Nc1ccc(C2CCCC2)c(C#Cc2ccccc2)n1 (centres unmarked) [Example 166, 2-amino-N-[5-cyclopentyl-6-(2-phenylethynyl)pyridin-2-yl]-propan-amide]
